Values of other authors as cited in patent publication US20260207657A1, “ANTISEPTIC COMPOSITIONS AND METHODS” (Solventum Intellectual Properties Company, priority 2022, published 2026).

Conditions: 25° C.

## II [molecular iodine]
  Solubility in water: 0.03 wt-%
